The values that follow come from patent US20250275954A1, “USE OF KYNURENIC ACID RESISTING HYPERURICEMIA AND STRUCTURAL ANALOG THEREOF IN PREPARATION OF XOD INHIBITOR” (JIMEI UNIVERSITY, priority 2023, published 2025).

What is called IC50 is the concentration that gives 50% inhibition.

Series [1] relates to hyperuricemic mice. In words: Serum uric acid in hyperuricemic mice (UA test kit). The class given is in vivo, Kunming mice. As to conditions: for serum uric acid level: hyperuricemic mice, day 21, vs model group (p<0.01), KA 7, 35, 70 mM/kg/day, allopurinol 35 mM/kg/day, gavage. The method, then: (§1) The normal control group received daily gavage of an equal amount of CMC-Na solution and injection of an equal amount of saline, and the remaining groups received daily gavage of 500 mg/kg hypoxanthine (HX) and intraperitoneal injection of 300 mg/kg potassium oxazinate (PO). […] Oral gavage was continued for 21 days. Data were analyzed for correlation and significance by using SPSS 23.0 software, and differences between the groups were compared by using one-way ANOVA, *p<0.05 indicates a significant difference, **p<0.01 indicates a very significant difference, and the data were expressed as X±SD.
At the end of the experiment on day 21, the mice in each group of Example 1 were subjected to blood collection from eyeballs of living bodies after being fasted for solids and liquids for 12 h. After sufficient blood samples were collected, they were allowed to stand at room temperature for 30 min and then centrifuged (3500 rpm, 10 min). A supernatant was taken and stored at −20° C. for standby application.
Serum uric acid levels in target mice were detected by using a uric acid (UA) test kit. The serum uric acid level is an important evaluation index of drug improvement in hyperuricemia.

Another series addresses XOD (xanthine oxidase) (Homo sapiens, UniProt P47989). In words: In vitro XOD enzyme activity inhibition (xanthine substrate, uric acid measured at 290 nm). As to conditions: for inhibition at 1000 µM: compound concentration 1 mM (FIG. 11), read-out: xanthine oxidase inhibitory activity at 1 mM; for IC50: in vitro, inhibitor co-reacted with XOD 10 min, xanthine substrate, 290 nm, read-out: XOI IC50 (XOD inhibitory activity). The series is classed as biochemical. The method, then: The inhibitory effect of quinoline structural analogs on XOD was evaluated by co-reacting an inhibitor with XOD for 10 min, adding a certain concentration of a reaction substrate xanthine, and measuring the amount of uric acid produced at 290 nm.

Series [2] concerns hyperuricemic mice. Nature of the series: Hepatic uric acid in hyperuricemic mice. To be noted: liver homogenate, day 21 (p<0.01); KA 7, 35, 70 mM/kg/day; allopurinol 35 mM/kg/day. The class given is in vivo, Kunming mice.
Excerpt: as §1, with “36 SPF-grade male Kunming mice with relatively consistent posture and good health were randomly divided into a normal control group, a model group, a positive control group, a kynurenic acid low dose group (KA-L), a kynurenic acid medium dose group (KA-M) and a kynurenic acid high dose group (KA-H), with six experimental mice in each group. The” for “The”
Serum uric acid levels in target mice were detected by using a uric acid (UA) test kit. […]
On day 21, the mice in each group of Example 1 were quickly sacrificed by cervical dislocation after being fasted for solids and liquids for 12 h and livers were collected for weighing and subpackaging. […] Uric acid levels in the mouse liver homogenate samples were determined by using the method described in Example 2. […]

Series [3] concerns the target T1, XOD (Mus musculus, UniProt Q00519).
T1 construct: from tissue; host or cells: liver homogenate of male Kunming mice (hyperuricemia model)
Nature of the series: Hepatic XOD enzyme activity in hyperuricemic mice. The class given is in vivo, Kunming mice. As to conditions: liver homogenate, day 21, vs model group (p<0.01); KA 7, 35, 70 mM/kg/day.
Excerpt: as §1, with “36 SPF-grade male Kunming mice with relatively consistent posture and good health were randomly divided into a normal control group, a model group, a positive control group, a kynurenic acid low dose group (KA-L), a kynurenic acid medium dose group (KA-M) and a kynurenic acid high dose group (KA-H), with six experimental mice in each group. The” for “The”
Serum samples of Example 2 were taken, and the XOD enzyme activity levels in the mouse serum samples were determined by using a xanthine oxidase (XOD) assay kit (a colorimetric method), and experimental operations and data calculation were performed in strict accordance with the kit instructions. […]

In series [4] the target is T1, XOD. In words: Serum XOD enzyme activity in hyperuricemic mice (colorimetric kit). As to conditions: day 21, vs model group (p<0.01), KA 7, 35, 70 mM/kg/day, allopurinol 35 mM/kg/day. The class given is in vivo, Kunming mice. The method, then:
as §1
After sufficient blood samples were collected, they were allowed to stand at room temperature for 30 min and then centrifuged (3500 rpm, 10 min). A supernatant was taken and stored at −20° C. for standby application.

Series [5] concerns hyperuricemic mice. In words: Blood urea nitrogen (BUN) in hyperuricemic mice. The class given is in vivo, Kunming mice.
Excerpt: as §1, with “36 SPF-grade male Kunming mice with relatively consistent posture and good health were randomly divided into a normal control group, a model group, a positive control group, a kynurenic acid low dose group (KA-L), a kynurenic acid medium dose group (KA-M) and a kynurenic acid high dose group (KA-H), with six experimental mice in each group. The” for “The”, “X±SD. […]” for “X±SD.”
Serum samples of Example 2 were taken and the blood urea nitrogen (BUN) content in the mouse serum samples was measured by using a blood urea nitrogen (BUN) assay kit (a urease method), and experimental operations and data calculation were performed in strict accordance with the kit instructions.

Series [6] has as its system adenosine deaminase (ADA). Nature of the series: Serum adenosine deaminase activity (ADA) in hyperuricemic mice (peroxidase method kit). The class given is in vivo, Kunming mice.
Excerpt: as §1, with “36 SPF-grade male Kunming mice with relatively consistent posture and good health were randomly divided into a normal control group, a model group, a positive control group, a kynurenic acid low dose group (KA-L), a kynurenic acid medium dose group (KA-M) and a kynurenic acid high dose group (KA-H), with six experimental mice in each group. The” for “The”
At the end of the experiment on day 21, the mice in each group of Example 1 were subjected to blood collection from eyeballs of living bodies after being fasted for solids and liquids for 12 h. […]
Serum samples of Example 2 were taken, and ADA enzyme activity levels in the mouse serum samples were determined by using an adenosine deaminase activity (ADA) assay kit (a peroxidase method).

Series [7] is described as follows: Body weight of hyperuricemic mice. The series is classed as in vivo, Kunming mice. As to conditions: hyperuricemic mice (HX + PO), daily gavage KA 7, 35 or 70 mM/kg, 21 days. The protocol:
SPF-grade male Kunming mice (8 weeks old), 35±5 g, were purchased from Changzhou Cavens Laboratory Animal Co., Ltd. Animal quality was tested by Suzhou Xishan Biotechnology Co., Ltd.
Experimental mice were housed in a clean animal feeding room, and feeding and experimental operations were performed according to the standards of the Animal Experimental Center, and the animal feeding room and an operating workbench were cleaned and disinfected daily. All experimental mice were housed in a comfortable environment (temperature: 25±2° C., humidity: 40%-70%, 12 hours of day and night cycle) with good ventilation and daily supplementation of feed and drinking water.
36 SPF-grade male Kunming mice with relatively consistent posture and good health were randomly divided into a normal control group, a model group, a positive control group, a kynurenic acid low dose group (KA-L), a kynurenic acid medium dose group (KA-M) and a kynurenic acid high dose group (KA-H), with six experimental mice in each group. […] Data were analyzed for correlation and significance by using SPSS 23.0 software, and differences between the groups were compared by using one-way ANOVA, *p<0.05 indicates a significant difference, **p<0.01 indicates a very significant difference, and the data were expressed as X±SD. […]

The test system of series [8] is hyperuricemic mice. In words: Serum creatinine (CRE) in hyperuricemic mice. To be noted: day 21, vs model group (p<0.01), KA 7, 35, 70 mM/kg/day. The series is classed as in vivo, Kunming mice. From the text:
36 SPF-grade male Kunming mice with relatively consistent posture and good health were randomly divided into a normal control group, a model group, a positive control group, a kynurenic acid low dose group (KA-L), a kynurenic acid medium dose group (KA-M) and a kynurenic acid high dose group (KA-H), with six experimental mice in each group. The normal control group received daily gavage of an equal amount of CMC-Na solution and injection of an equal amount of saline, and the remaining groups received daily gavage of 500 mg/kg hypoxanthine (HX) and intraperitoneal injection of 300 mg/kg potassium oxazinate (PO). […] Oral gavage was continued for 21 days. Data were analyzed for correlation and significance by using SPSS 23.0 software, and differences between the groups were compared by using one-way ANOVA, *p<0.05 indicates a significant difference, **p<0.01 indicates a very significant difference, and the data were expressed as X±SD. […]
Serum samples of Example 2 were taken and the CRE content of the mouse serum samples was measured by using a creatinine (CRE) assay kit (sarcosine oxidation), and experimental operations and data calculation were performed in strict accordance with the kit instructions.

Where [9] appears, read: hyperuricemic mice, day 21, vs model group (p<0.01), KA 7, 35, 70 mM/kg/day.

“Also recorded” adds a separate entry of the source.

Chain of XOD (xanthine oxidase) (P47989 whole entry, species assumed): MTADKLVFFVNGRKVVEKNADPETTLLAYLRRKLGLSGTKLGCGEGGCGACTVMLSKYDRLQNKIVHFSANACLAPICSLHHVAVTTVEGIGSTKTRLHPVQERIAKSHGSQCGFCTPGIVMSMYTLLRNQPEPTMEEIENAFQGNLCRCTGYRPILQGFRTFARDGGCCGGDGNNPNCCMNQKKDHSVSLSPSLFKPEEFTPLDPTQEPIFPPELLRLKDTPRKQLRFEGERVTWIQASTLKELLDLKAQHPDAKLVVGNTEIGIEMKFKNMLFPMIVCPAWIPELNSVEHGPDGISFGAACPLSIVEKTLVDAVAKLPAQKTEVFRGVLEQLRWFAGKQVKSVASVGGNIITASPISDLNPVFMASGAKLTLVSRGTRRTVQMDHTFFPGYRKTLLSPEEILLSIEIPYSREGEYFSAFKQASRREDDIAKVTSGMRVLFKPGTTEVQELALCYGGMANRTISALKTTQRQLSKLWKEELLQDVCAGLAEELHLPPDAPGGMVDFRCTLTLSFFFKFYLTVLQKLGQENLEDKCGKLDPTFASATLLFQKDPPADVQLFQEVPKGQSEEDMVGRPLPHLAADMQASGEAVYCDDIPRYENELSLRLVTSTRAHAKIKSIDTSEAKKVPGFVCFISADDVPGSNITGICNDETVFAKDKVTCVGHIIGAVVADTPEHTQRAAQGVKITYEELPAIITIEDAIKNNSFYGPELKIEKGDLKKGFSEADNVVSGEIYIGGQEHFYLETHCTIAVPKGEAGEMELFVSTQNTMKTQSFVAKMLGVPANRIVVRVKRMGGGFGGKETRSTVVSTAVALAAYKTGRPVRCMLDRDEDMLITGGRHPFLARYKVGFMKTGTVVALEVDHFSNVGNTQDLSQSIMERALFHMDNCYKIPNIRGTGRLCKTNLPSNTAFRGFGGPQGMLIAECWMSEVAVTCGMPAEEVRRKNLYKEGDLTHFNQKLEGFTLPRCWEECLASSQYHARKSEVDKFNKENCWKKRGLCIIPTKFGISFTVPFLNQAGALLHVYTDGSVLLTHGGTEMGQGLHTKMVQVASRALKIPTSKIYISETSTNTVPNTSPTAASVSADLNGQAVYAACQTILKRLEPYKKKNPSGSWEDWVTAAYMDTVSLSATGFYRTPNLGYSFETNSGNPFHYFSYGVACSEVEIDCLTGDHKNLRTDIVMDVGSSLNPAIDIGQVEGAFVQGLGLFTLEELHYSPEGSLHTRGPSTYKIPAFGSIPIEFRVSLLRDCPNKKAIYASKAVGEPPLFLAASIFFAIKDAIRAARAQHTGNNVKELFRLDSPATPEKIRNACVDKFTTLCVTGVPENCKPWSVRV
T1 sequence (Q00519 whole entry): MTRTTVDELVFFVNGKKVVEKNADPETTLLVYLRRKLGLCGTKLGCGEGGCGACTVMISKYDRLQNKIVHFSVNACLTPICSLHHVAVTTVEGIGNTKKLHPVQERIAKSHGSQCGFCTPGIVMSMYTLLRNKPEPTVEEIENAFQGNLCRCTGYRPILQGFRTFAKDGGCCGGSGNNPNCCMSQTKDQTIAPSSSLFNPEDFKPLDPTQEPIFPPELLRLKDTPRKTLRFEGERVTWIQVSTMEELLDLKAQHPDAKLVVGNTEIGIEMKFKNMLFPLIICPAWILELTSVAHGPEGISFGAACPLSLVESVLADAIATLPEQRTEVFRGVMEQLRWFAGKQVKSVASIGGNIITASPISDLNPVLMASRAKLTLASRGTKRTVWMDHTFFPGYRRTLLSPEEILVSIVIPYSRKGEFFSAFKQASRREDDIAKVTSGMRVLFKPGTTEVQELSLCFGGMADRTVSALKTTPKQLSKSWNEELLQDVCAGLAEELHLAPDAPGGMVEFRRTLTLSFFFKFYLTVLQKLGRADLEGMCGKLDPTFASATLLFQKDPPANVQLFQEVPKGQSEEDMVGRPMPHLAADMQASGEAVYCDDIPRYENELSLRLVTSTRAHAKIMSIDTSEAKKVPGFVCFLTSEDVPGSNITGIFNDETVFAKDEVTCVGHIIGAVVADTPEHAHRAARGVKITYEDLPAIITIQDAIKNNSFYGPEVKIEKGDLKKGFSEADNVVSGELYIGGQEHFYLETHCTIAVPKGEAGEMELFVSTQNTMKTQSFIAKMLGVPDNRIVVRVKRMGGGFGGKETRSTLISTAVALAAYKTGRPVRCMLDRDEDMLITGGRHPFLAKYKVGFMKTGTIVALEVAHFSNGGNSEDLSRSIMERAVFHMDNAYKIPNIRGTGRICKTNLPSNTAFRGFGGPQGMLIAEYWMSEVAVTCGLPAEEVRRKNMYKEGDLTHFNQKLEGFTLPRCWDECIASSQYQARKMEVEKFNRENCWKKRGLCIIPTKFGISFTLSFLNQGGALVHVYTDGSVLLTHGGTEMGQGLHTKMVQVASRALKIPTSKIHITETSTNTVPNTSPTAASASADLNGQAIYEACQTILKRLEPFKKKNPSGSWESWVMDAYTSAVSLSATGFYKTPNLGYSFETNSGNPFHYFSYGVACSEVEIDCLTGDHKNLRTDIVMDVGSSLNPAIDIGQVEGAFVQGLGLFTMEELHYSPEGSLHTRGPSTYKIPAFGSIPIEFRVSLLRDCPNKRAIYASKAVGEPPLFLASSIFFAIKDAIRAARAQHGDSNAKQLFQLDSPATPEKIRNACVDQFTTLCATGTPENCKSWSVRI

Regarding `Oc1ncnc2[nH]ncc12` [allopurinol, reference compound], in the series with hyperuricemic mice [1], the “serum uric acid level” value is reported as “significantly inhibited the increase”. The “xanthine oxidase inhibitory activity at various concentrations” value at XOD (xanthine oxidase) (FIG. 10A to 10R) was “concentration-dependent”. Moreover, the “hepatic uric acid level” value with hyperuricemic mice [2] is “significantly reduced”.

For `O=C(O)c1nc2ccccc2cc1O` [Compound 13, 3-Hydroxyquinoline-2-carboxylic acid], at XOD (xanthine oxidase), the inhibition at 1000 µM was > 50% and the IC50 came to 0.97 ± 0.05 mM.

Consider `O=C(O)c1cc(O)nc2ccccc12` [Compound 11, 2-Hydroxyquinoline-4-carboxylic acid], for which, at XOD (xanthine oxidase), the IC50 was 1.61 ± 0.07 mM.

For `O=C(O)c1cnc2ccc(O)cc2c1` [Compound 5, 6-Hydroxyquinoline-3-carboxylic acid], on XOD (xanthine oxidase), the inhibition at 1000 µM is > 50% and the IC50 was found to be 0.5 ± 0.13 mM.

In the case of `O=C(O)c1cc(O)c2ccccc2n1` [KA, Kynurenic acid], the “hepatic XOD enzyme activity” value at XOD [3] is “effectively inhibit; also recorded: decreased significantly”. The “serum XOD enzyme activity” value on XOD [4] is listed as “reduce serum XOD enzyme activity in hyperuricemic mice to varying degrees”. The “BUN level compared with the positive control group” value in the series on hyperuricemic mice [5] (KA-M and KA-H (35 and 70 mM/kg/day) vs allopurinol 35 mM/kg/day (p<0.01)) was “reduce BUN levels in the mice more significantly”. The “blood urea nitrogen (BUN) level” value with hyperuricemic mice [5] (setting [9]) was “significantly reduces; also recorded: significantly decrease”. In addition, the “serum uric acid level, comparison among KA doses” value in the series on hyperuricemic mice [1] (KA-H, 70 mM/kg/day, day 21) is on record as “most pronounced”. The “serum uric acid level” value with hyperuricemic mice [1] is recorded as “significantly reduce”. The IC50 on XOD (xanthine oxidase) worked out at 1.99 ± 0.26 mM. Also, the “hepatic uric acid level” value in the series with hyperuricemic mice [2] was “reduce hepatic UA levels in a concentration-dependent manner; also recorded: reduce hepatic uric acid levels in a concentration-dependent manner; also recorded: gradient decline”. For the same compound, in series [6] (KA-H, 70 mM/kg/day, day 21), the “serum ADA enzyme activity, comparison among KA doses” value is listed as “the most significant”. Besides, in [6] (setting [9]), the “serum ADA enzyme activity” value is on record as “effectively reduce; also recorded: significantly reduced”. In addition, in series [7], the “growth status and body weight” value is listed as “no significant effect; also recorded: no significant impact; also recorded: did not affect”. In addition, the “serum creatinine (CRE) level” value with hyperuricemic mice [8] is “significantly reduces; also recorded: significantly decrease”.

Turning to `CCOC(=O)c1cc(O)c2ccccc2n1` [Compound 7, Ethyl 4-hydroxyquinoline-2-carboxylate], at XOD (xanthine oxidase), the IC50 came to 5.65 ± 0.1 mM.
